# Test results: patent US20240269308A1, “PRODRUGS OF TOPOISOMERASE I INHIBITOR FOR ADC CONJUGATIONS AND METHODS OF USE THEREOF” (priority 2022, published 2024)
# Like-named read-outs stand apart in the source and are kept apart here.
# Columns and labels:
# SK-BR-3 cells = assay: SKBR3 cell-based anti-proliferation / viability assay (CellTiter-Glo); set-up: species or system human; settings: for SKBR3 % Kill: SKBR3 target positive cells, 6 days
# Description: (§1) The anti-Her2 viability assay protocol is following.
# (§2) 0.1% BSA was added to the Opti-MEM reduced serum media [Gibco, cat #31985-070]. This assay media was used for the dilution of ADC and free drug.
# (§3) Cells were seeded in their growth media into 96 well plates (Thermo #136101) one day prior to adding ADCs: 1000/well SKBR3 cells in 80 uL media (target positive cells), 1000/well NCI-N87 cells in 80 uL media (target positive cells), 1000/well Calu-3 in 80 uL media (target positive cells), and 800/well NCI-H1975 cells in 80ul media (target negative cells).
# (§4) Serial dilutions of free drug in 100% DMSO (1:4 10 pts starting from 100 uM) were prepared. Serially diluted payload was transferred into Opti-Mem with 0.1% BSA (10 uL into 990 uL media). Serial dilutions of ADCs/isotype controls at 1:4 in Opti-Mem with 0.1% BSA (starting from 5×1000 nM) were prepared. 20ul assay media diluted ADC/isotype conjugates as well as free drug were transferred to above cells. The plates were incubated at 37° C., 5% CO2 for 6 days. Plates were developed by adding 100ul CellTiter Glo 2.0. RT 5-10 min. Plates were read with Envision plate reader. Data was analyzed using Prism. Only inner 60 well are used for the assay. The edge wells were filled with media to prevent dry out.
# The cell line used in the anti-proliferation assays was SK-BR-3, a human breast, adenocarcinoma (pleural effusion) cell line; The cells were grown in McCoy's 5a Medium+10% FBS. To run the assay, the cells (80 μl, 1000 cells) were added to each well in a 96-well plate and incubated for 24 hours at 37° C. with CO2. Next, the cells were treated with test compounds (20 μl) at various concentrations in appropriate cell culture medium (total volume, 0.1 mL). The control wells contain cells and the medium but lack the test compounds. The plates were incubated for 144 hours at 37° C. with CO2. CTG reagent was then added to the wells (100 μl). After the plates were shaken for 10 min and then incubated for 10 min at room temperature, paste the clear bottom with white back seal and record luminescence with Envision. The inhibition % was calculated according to the following equation: inhibition %=[1-(assay-blank)/(control-blank)]×100.
# [1] = Mouse whole blood stability test; assay type: in vitro ADME; settings: for % of test compound in whole blood (initial 1 uM as 100%): 37° C.
# Description: In vitro stability of Linker-Prodrug in mouse whole blood Scheme 15. Metabolism of LP1 (M2980) in whole blood.
# Stock solution of test compound was provided in 100% DMSO. The stock solution for each compound was diluted into 500 μM with mixture of 50% acetonitrile, then diluted into mouse blood to achieve a final concentration of 1.0 μM. 1.0 μM of test compound in duplicate was incubated in blood at 37° C. Aliquots of 50 uL sample was collected at 0, 15, 30, 60, 120, 240, 480 min, and 24 hours. Reactions were terminated at various time points (0, 15, 30, 60, 120, 240, 480 min, 24 hours) by adding 200 μL of ice-cold acetonitrile containing internal standard with 1% formic acid and then ultrasound for 30 seconds. Plate was centrifuged (4000 rpm, 15 min). 50 μL of supernatants were transferred into a daughter plate containing 200 μL of H2O in each well. The samples were mixed well and analyzed with UPLC-MS/MS.
# A Waters liquid chromatographic system was used. Detection was performed on AP14000 Q-Trap and AP15500 mass spectrometer equipped with TurbolonSpray (ESI) Interface (Applied Biosystems, Concord, Ontario, Canada). Analyst 1.5 and 1.6.2 software packages (Applied Biosystems) were used to control the LC-MS/MS system, as well as for data acquisition and processing.
# Chromatographic separation was achieved on the Wates BEH C18 column (50*2.1 mm ID, 1.7 μm). The column temperature was maintained at ambient temperature (25° C.). The flow rate was maintained at 0.6 mL/min and the following mobile phases were used: water (0.1% formic acid, v/v) (phase A) and acetonitrile (0.1% formic acid, v/v) (phase B).
# Test compounds (1.0 μM) were incubated in blood at 37° C. in duplicate. Aliquots of 50 uL sample was collected at 0, 15, 30, 60, 120, 240, 480 min, and 24 hours. Reactions were terminated at various time points (0, 15, 30, 60, 120, 240, 480 min, 24 hours by adding 200 μL of ice-cold acetonitrile containing internal standard with 1% formic acid, then ultrasound for 30 seconds. The plate was centrifuged (4000 rpm, 15 min). 50 μL of supernatants were transferred into a daughter plate containing 200 μL of water in each well. Samples were mixed well and analyzed with UPLC-MS/MS.
# The % was calculated based on initial 1 uM as 100% and the standard concentration curve.
# JIMT-1 = assay: in vitro cell killing activity, JIMT-1 cells (CellTiter Glo viability); assay type: cell-based; settings: for IC50: Homo sapiens
# Description: as §4
# NCI-H1975 cells = assay: anti-Her2 viability assay, NCI-H1975 cells (target negative); assay type: cell-based; settings: for IC50: Homo sapiens
# Description: as §1, §2, §3, §4
# in vitro = settings: human, plasma
# Calu-3 = assay: anti-Her2 viability assay, Calu-3 cells (target positive); assay type: cell-based; settings: for IC50: Homo sapiens
# Description: as §1, §2, §3, §4
# NCI-N87 cells = assay: anti-Her2 viability assay, NCI-N87 cells (target positive); assay type: cell-based; settings: for IC50: Homo sapiens
# Description: as §1, §2, §3, §4
# [2] = Homo sapiens, SK-BR-3, read-out: SKBR3 EC50
# [3] = NCI-H1975 target negative cells, 6 days
# [4] = Calu-3 target positive cells, 6 days
smiles,measurement,setting,value
"CC[C@@]1(O)C(=O)OCc2c1cc1n(c2=O)Cc2c-1nc1cc(F)c(C)c3c1c2[C@@H](NC(=O)COCNC(=O)[C@H](N)Cc1ccccc1)CC3 [P12, (2R)-2-amino-N-[({[(10S,23S)-10-ethyl-18-fluoro-10-hydroxy-19-methyl-5,9-dioxo-8-oxa-4,15-diazahexacyclo[14.7.1.0^2,14.0^4,13.0^6,11.0^20,24]tetracosa-1,6(11),12,14,16,18,20(24)-heptaen-23-yl]carbamoyl}methoxy)methyl]-3-phenylpropanamide]",EC50,SK-BR-3 cells; [2],15.3 nM
"CC[C@@]1(O)C(=O)OCc2c1cc1n(c2=O)Cc2c-1nc1cc(F)c(C)c3c1c2[C@@H](NC(=O)COCNC(=O)[C@@H](N)CCC(N)=O)CC3 [P3, (2S)-2-amino-N-[({[(10S,23S)-10-ethyl-18-fluoro-10-hydroxy-19-methyl-5,9-dioxo-8-oxa-4,15-diazahexacyclo[14.7.1.0^2,14.0^4,13.0^6,11.0^20,24]tetracosa-1,6(11),12,14,16,18,20(24)-heptaen-23-yl]carbamoyl}methoxy)methyl]pentanediamide]",half-life at 1 μM,"[1]; mouse, blood",1 h
same,Mouse blood stability % Remaining at 24 h,"[1]; mouse, blood, 1 μM",6.5%
same,Human plasma stability % Remaining at 24 h,,48.9%
same,IC50,"JIMT-1; JIMT-1 cells, read-out: JIMT-1 IC50",88.6 nM
same,JIMT-1 % Kill,JIMT-1; JIMT-1 cells,81.3%
same,IC50,"NCI-H1975 cells; 144 h, NCI-H1975 target negative cells, 6 days, read-out: H1975 IC50",54.5 nM
same,H1975 % Kill,NCI-H1975 cells; [3],88.5%
same,half-life,in vitro,24.1 h
same,Calu-3 % Kill,Calu-3; [4],90.7%
same,IC50,"Calu-3; 144 h, Calu-3 target positive cells, 6 days, read-out: Calu-3 IC50",15.9 nM
same,IC50,"NCI-N87 cells; 144 h, NCI-N87 target positive cells, 6 days, read-out: N87 IC50",30.4 nM
same,N87 % Kill,"NCI-N87 cells; NCI-N87 target positive cells, 6 days",95.5%
same,EC50,SK-BR-3 cells; [2],11.6 nM
same,SKBR3 % Kill,SK-BR-3 cells,94.3%
"CC[C@@]1(O)C(=O)OCc2c1cc1n(c2=O)Cc2c-1nc1cc(F)c(C)c3c1c2[C@@H](NC(=O)CO)CC3 [Dxd, reference compound]",% of test compound in whole blood (initial 1 uM as 100%),"[1]; mouse blood, 0 hr",100.0%
same,% of test compound in whole blood (initial 1 uM as 100%),"[1]; mouse blood, 0.25 hr",95.9%
same,% of test compound in whole blood (initial 1 uM as 100%),"[1]; mouse blood, 0.5 hr",103.6%
same,% of test compound in whole blood (initial 1 uM as 100%),"[1]; mouse blood, 1 hr",111.9%
same,% of test compound in whole blood (initial 1 uM as 100%),"[1]; mouse blood, 2 hr",97.6%
same,% of test compound in whole blood (initial 1 uM as 100%),"[1]; mouse blood, 4 hr",94.8%
same,% of test compound in whole blood (initial 1 uM as 100%),"[1]; mouse blood, 8 hr",94.2%
same,% of test compound in whole blood (initial 1 uM as 100%),"[1]; mouse blood, 24 hr",94.2%
same,Mouse blood stability % Remaining at 24 h,[1]; mouse blood,94.8%
same,half-life at 1 μM,"[1]; mouse, blood, read-out: Mouse blood stability T1/2 (converted)",62.6 h
same,IC50,"JIMT-1; JIMT-1, read-out: JIMT-1 IC50 (nM)",4.41 nM
same,JIMT-1 % Kill,JIMT-1; JIMT-1 cells,94.5%
same,IC50,"NCI-H1975 cells; NCI-H1975, 144 h, read-out: H1975 IC50 (nM)",3.45 nM
same,H1975 % Kill,NCI-H1975 cells; [3],99.3%
same,Calu-3 % Kill,Calu-3; [4],94.9%
same,IC50,"Calu-3; Calu-3, 144 h, read-out: Calu-3 IC50 (nM)",1.3 nM
same,IC50,"NCI-N87 cells; NCI-N87, 144 h, read-out: N87 IC50 (nM)",2.59 nM
same,IC50,"SK-BR-3 cells; Homo sapiens, SK-BR-3, 144 h, read-out: SKBR3 IC50 (nM)",1.02 nM
same,EC50,"SK-BR-3 cells; Homo sapiens, SK-BR-3, read-out: SKBR3 EC50 (nM)",1.63 nM
same,SKBR3 % Kill,SK-BR-3 cells,97.0%
"CC[C@@]1(O)C(=O)OCc2c1cc1n(c2=O)Cc2c-1nc1cc(F)c(C)c3c1c2[C@@H](NC(=O)COCNC(=O)[C@@H](N)CCCCN)CC3 [P5, (2S)-2,6-diamino-N-[({[(10S,23S)-10-ethyl-18-fluoro-10-hydroxy-19-methyl-5,9-dioxo-8-oxa-4,15-diazahexacyclo[14.7.1.0^2,14.0^4,13.0^6,11.0^20,24]tetracosa-1,6(11),12,14,16,18,20(24)-heptaen-23-yl]carbamoyl}methoxy)methyl]hexanamide]",half-life at 1 μM,"[1]; mouse, blood",0.4 h
same,Mouse blood stability % Remaining at 24 h,"[1]; mouse, blood, 1 μM",1.3%
same,Human plasma stability % Remaining at 24 h,,69.7%
same,half-life,in vitro,49.4 h
same,EC50,SK-BR-3 cells; [2],4.51 nM
"CC[C@@]1(O)C(=O)OCc2c1cc1n(c2=O)Cc2c-1nc1cc(F)c(C)c3c1c2[C@@H](NC(=O)COCNC(=O)[C@@H](N)CCCCN=[N+]=[N-])CC3 [P6, (2S)-2-amino-6-azido-N-[({[(10S,23S)-10-ethyl-18-fluoro-10-hydroxy-19-methyl-5,9-dioxo-8-oxa-4,15-diazahexacyclo[14.7.1.0^2,14.0^4,13.0^6,11.0^20,24]tetracosa-1,6(11),12,14,16,18,20(24)-heptaen-23-yl]carbamoyl}methoxy)methyl]hexanamide]",half-life at 1 μM,"[1]; mouse, blood",0.2 h
same,Mouse blood stability % Remaining at 24 h,"[1]; mouse, blood, 1 μM",3.3%
same,Human plasma stability % Remaining at 24 h,,59.0%
same,half-life,in vitro,28.2 h
same,EC50,SK-BR-3 cells; [2],2.06 nM
"CC[C@@]1(O)C(=O)OCc2c1cc1n(c2=O)Cc2c-1nc1cc(F)c(C)c3c1c2[C@@H](NC(=O)COCN(C)C(=O)CN)CC3 [P9, 2-amino-N-[({[(10S,23S)-10-ethyl-18-fluoro-10-hydroxy-19-methyl-5,9-dioxo-8-oxa-4,15-diazahexacyclo[14.7.1.0^2,14.0^4,13.0^6,11.0^20,24]tetracosa-1,6(11),12,14,16,18,20(24)-heptaen-23-yl]carbamoyl}methoxy)methyl]-N-methylacetamide]",EC50,SK-BR-3 cells; [2],69.5 nM
"CC[C@@]1(O)C(=O)OCc2c1cc1n(c2=O)Cc2c-1nc1cc(F)c(C)c3c1c2[C@@H](NC(=O)COCNC(=O)C(C)(C)N)CC3 [P11, 2-amino-N-[({[(10S,23S)-10-ethyl-18-fluoro-10-hydroxy-19-methyl-5,9-dioxo-8-oxa-4,15-diazahexacyclo[14.7.1.0^2,14.0^4,13.0^6,11.0^20,24]tetracosa-1,6(11),12,14,16,18,20(24)-heptaen-23-yl]carbamoyl}methoxy)methyl]-2-methylpropanamide]",EC50,SK-BR-3 cells; [2],27.7 nM
"CC[C@@]1(O)C(=O)OCc2c1cc1n(c2=O)Cc2c-1nc1cc(F)c(C)c3c1c2[C@@H](NC(=O)COCNC(=O)CNC(=O)CN)CC3 [P8, 2-amino-N-({[({[(10S,23S)-10-ethyl-18-fluoro-10-hydroxy-19-methyl-5,9-dioxo-8-oxa-4,15-diazahexacyclo[14.7.1.0^2,14.0^4,13.0^6,11.0^20,24]tetracosa-1,6(11),12,14,16,18,20(24)-heptaen-23-yl]carbamoyl}methoxy)methyl]carbamoyl}methyl)acetamide]",half-life at 1 μM,"[1]; mouse, blood",2.9 h
same,Mouse blood stability % Remaining at 24 h,"[1]; mouse, blood, 1 μM",46.9%
same,Human plasma stability % Remaining at 24 h,,86.0%
same,half-life,in vitro,144 h
same,EC50,SK-BR-3 cells; [2],30.8 nM
